According to patent publication US7498304B2, “Angiogenesis-modulating compositions and uses” (Curis, Inc., priority 2002, dated 2009):

Assays:
C3H10T1/2 cells = test: C3H10T1/2 alkaline phosphatase induction assay; type: cell-based, mouse
Excerpt: Persons having ordinary skill in the art can easily test any putative hedgehog antagonist for these properties. In particular, the mouse embryonic fibroblast line C3H10T1/2 is a mesenchymal stem cell line that is hedgehog responsive. Hedgehog treatment of the cells causes an upregulation of gli-1 and patched-1 (known indicators of hedgehog dependent signaling) and also causes induction of alkaline phosphatase activity, an indicator that the cells have differentiated down the chondrocyte/ bone osteoblast lineage. Several hedgehog variants are unable to elicit a hedgehog-dependent response on C3H10T1/2 cells, but they competed with mature hedgehog for function and therefore serve as functional antagonists. […]
The mouse embryonic fibroblast line C3H10T1/2 is a mesenchymal stem cell line that, under defined conditions, can differentiate into adipocytes, chondrocytes, and bone osteoblasts (Taylor, S. M., and Jones, P. A., Cell 17: 771-779 (1979) and Wang, E. A., et al., Growth Factors 9: 57-71 (1993)). […] Shh has a similar effect on C3H10T1/2 cells (Kinto, N. et al., FEBS Letts. 404: 319-323 (1997)) and we routinely use the alkaline phosphatase induction by Shh as a quantitative measure of its in vitro potency. Shh treatment also produces a dose-dependent increase in gli-1 and ptc-1 expression, which can be readily detected by a PCR-based analysis.

patched-1 = target: T1, patched-1 (Homo sapiens, UniProt Q13635); test: binding to the hedgehog receptor patched-1; settings: compared with mature Shh
T1 sequence (Q13635 1-1447): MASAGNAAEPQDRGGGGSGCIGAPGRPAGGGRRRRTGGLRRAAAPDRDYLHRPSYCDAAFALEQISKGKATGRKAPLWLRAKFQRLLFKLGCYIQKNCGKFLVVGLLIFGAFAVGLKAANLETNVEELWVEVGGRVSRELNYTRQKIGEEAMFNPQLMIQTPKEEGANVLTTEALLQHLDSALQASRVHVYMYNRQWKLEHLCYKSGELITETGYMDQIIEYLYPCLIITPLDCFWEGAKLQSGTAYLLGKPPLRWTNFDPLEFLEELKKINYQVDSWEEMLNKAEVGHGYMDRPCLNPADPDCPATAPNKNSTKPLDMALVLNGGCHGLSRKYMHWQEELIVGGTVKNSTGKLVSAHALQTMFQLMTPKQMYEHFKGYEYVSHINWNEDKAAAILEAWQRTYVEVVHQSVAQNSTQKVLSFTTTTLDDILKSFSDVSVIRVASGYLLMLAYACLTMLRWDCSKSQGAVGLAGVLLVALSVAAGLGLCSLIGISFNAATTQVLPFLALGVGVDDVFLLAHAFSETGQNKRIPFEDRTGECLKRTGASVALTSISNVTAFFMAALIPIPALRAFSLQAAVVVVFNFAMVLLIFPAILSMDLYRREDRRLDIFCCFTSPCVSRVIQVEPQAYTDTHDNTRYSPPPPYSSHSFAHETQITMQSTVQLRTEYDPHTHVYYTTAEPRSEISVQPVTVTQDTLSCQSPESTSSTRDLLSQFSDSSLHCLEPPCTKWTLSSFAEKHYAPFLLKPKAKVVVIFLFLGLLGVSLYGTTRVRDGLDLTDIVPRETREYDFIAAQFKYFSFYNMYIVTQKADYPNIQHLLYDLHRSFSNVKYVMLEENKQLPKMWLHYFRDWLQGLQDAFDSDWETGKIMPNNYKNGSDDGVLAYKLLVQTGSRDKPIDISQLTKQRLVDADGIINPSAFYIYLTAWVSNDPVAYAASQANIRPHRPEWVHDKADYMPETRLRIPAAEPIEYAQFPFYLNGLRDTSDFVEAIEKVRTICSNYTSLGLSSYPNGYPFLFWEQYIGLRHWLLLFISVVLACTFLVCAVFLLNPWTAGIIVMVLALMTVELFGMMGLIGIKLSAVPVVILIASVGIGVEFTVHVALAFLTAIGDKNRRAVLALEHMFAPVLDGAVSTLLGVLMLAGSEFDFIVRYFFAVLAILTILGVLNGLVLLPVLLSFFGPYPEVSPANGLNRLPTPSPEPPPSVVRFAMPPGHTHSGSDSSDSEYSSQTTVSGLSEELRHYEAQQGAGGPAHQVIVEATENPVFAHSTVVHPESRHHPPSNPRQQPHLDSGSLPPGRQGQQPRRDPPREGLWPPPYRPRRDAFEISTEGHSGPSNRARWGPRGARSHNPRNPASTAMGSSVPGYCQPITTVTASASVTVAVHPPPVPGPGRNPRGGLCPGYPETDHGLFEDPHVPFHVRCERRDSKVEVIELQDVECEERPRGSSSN

matrigel plug = test: subcutaneous matrigel plug assay of angiogenesis; settings: mouse, in vivo
Procedure: Hedgehog was also found to induce angiogenesis in the subcutaneous matrigel plug assay (Passaniti et al., 1992). Doses of 2 to 10 ug/ml of octyl, myr, PEG II or II-Fc fusion forms of human recombinant Shh were prepared in 0.5 ml of matrigel containing 40 IU/ml of heparin and injected subcutaneously into C57BL6 mice (3-5 mo. old, 5 mice/treatment group). The mice were sacrificed between 6-7 days after injection and the matrigel plug was dissected for visual inspection and histological analysis. […] The results of the matrigel plug support the finding that hedgehog can induce angiogenesis in vivo.

Substance	block of AP induction by mature Shh (C3H10T1/2 cells)	ability to bind patched-1 (patched-1)	implants with significant hemoglobin content (matrigel plug)
Shh in which the N-terminal cysteine is replaced with a serine residue: Shh mutant, N-terminal cysteine replaced with serine; functional antagonist	blocks AP induction	indistinguishable from mature Shh	
bFGF: Recombinant human bFGF, a known angiogenic protein			3 of 5
